Assays:
[1] = Slurrying experiment (single form) in methanol, thermodynamic stability; format: physicochemical; conditions: for polymorphic form after slurrying (XRPD): slurried in methanol for four days at 25° C.
Protocol: The stability of the various solid forms of 5-(ethylsulfonyl)-2-(naphthalen-2-yl)benzo[d]oxazole was investigated by stirring samples of each and mixtures thereof in methanol for defined time periods.
Approximately 10 mg of two polymorphic forms was slurried in 0.25 ml of methanol for 4 days at either room temperature or 60° C. The supernatant liquor was then removed and the resulting solid was dried under vacuum for 24 hrs.
Approximately 2 mg of sample was gently compressed on the XRPD zero back ground single obliquely cut silica sample holder. The sample was then loaded into a Philips X-Pert MPD diffractometer and analysed using the following experimental conditions:
Tube anode: Cu Generator tension: 40 kV Tube current: 40 mA Wavelength alpha1: 1.5406 A Wavelength alpha2: 1.5444 A Start angle [2θ]: 5 End angle [2θ]: 35 Time per step: 2.5 seconds Scan step size: 0.06

Utrophin A promoter = assay: Luciferase reporter assay (murine H2K cells); format: cell-based, mouse; conditions: H2K/mdx/Utro A reporter cells, final concentration 10 μM, 48 hrs
Protocol: The cell line used for the screen is an immortalized mdx mouse H2K cell line that has been stably transfected with a plasmid containing 5 kb fragment of the Utrophin A promoter including the first untranslated exon linked to a luciferase reporter gene (see FIG. 26). Under conditions of low temperature and interferon containing media, the cells remain as myoblasts. These are plated into 96 well plates and cultured in the presence of compound for three days. The level of luciferase is then determined by cell lysis and reading of the light output from the expressed luciferase gene utilising a plate luminometer. The H2K/mdx/Utro A reporter cell line was passaged twice a week until ≦30% confluent. The cells were grown at 33° C. in the presence of 10% CO2 To remove the myoblasts for platting, they were incubated with Trypsin/EDTA until the monolayer started to detach. The H2K/mdx/Utro A reporter cell line cells were plated out into 96 well plates (Falcon 353296, white opaque) at a density of approximately 5000 cells/well in 190 μl normal growth medium. The plates were then incubated at 33° C. in the presence of 10% CO2 for 24 hrs. […] The plates were then incubated for a further 48 hrs Cells were then lysed in situ following the manufacture's protocols (Promega Steady-Glo Luciferase Assay System (E2520). Then counted for 10 seconds using a plate luminometer (Victor1420).

Structure (SMILES)	polymorphic form after slurrying (XRPD) [1]	polymorphic form after slurrying (XRPD) ([1]; listed as Polymorphic form 2)	polymorphic form after slurrying (XRPD) ([1]; listed as Polymorphic form 1)	stability compared with previously known forms ([1]; stirring in methanol)	Biological activity in luciferase reporter assay relative to control (Utrophin A promoter)
CCS(=O)(=O)c1ccc2oc(-c3ccc4ccccc4c3)nc2c1 [polymorphic form 2, 5-(ethylsulfonyl)-2-(naphthalen-2-yl)benzo[d]oxazole]	converted into polymorphic form 1	polymorphic form 1 has converted to polymorphic form 2			
CCS(=O)(=O)c1ccc2oc(-c3ccc4ccccc4c3)nc2c1 [polymorphic form 1, 5-(ethylsulfonyl)-2-(naphthalen-2-yl)benzo[d]oxazole]	retains its structure		no change in the polymorphic form	increased stability	
CCS(=O)(=O)c1ccc2oc(-c3ccc4ccccc4c3)nc2c1 [5-(ethylsulfonyl)-2-(naphthalen-2-yl)benzo[d]oxazole]					+++ (Between 301% and 400% relative to control)
